Patent US10973865B2, “Method of making solanaceae fruit extracts” (Provexis Natural Products Limited, priority 2008, dated 2021)
In brackets after ≈: the same amount, converted by molar mass.

Each compound was assayed on platelet aggregation induced by collagen in platelet-rich plasma (assay: Inhibition of collagen-induced platelet aggregation in platelet-rich plasma (aggregometer)). Conditions: Homo sapiens; amount in mg inhibiting aggregation by 50% in 1 mL platelet-rich plasma; collagen 5 mg/L; average of at least 3 IC50s.
Type: cell-based, human
Experimental: (§1) The experimental protocol described below was devised to determine the […] values of compounds isolated as described in 1.1.3. Crude bioassays to evaluate inhibition of platelet aggregation in vitro were performed on some crude extracts (data not shown) to help select fine fractions/compounds identified by HPLC for functional activity. This approach was considered necessary to avoid the need to assay each and ever compound (the would be thousands) in the fruit extracts.
(§2) An IC50 value represents the amount of a compound, in mg, required to inhibit by 50% the platelet aggregation induced under standardised conditions in 1 mL platelet-rich plasma, in comparison with control samples.
(§3) Blood for in vitro studies was collected from drug-free, healthy human volunteers, both male and female, aged 18-60 years, with normal platelet function. Subjects declared that they had not consumed drugs or supplements known to affect platelet function for a minimum of 10 days before providing a blood sample. Blood was collected after single venepuncture to an antecubital vein through siliconized needles into plastic citrated blood collection tubes (Sarstedt Monovettes, final concentration sodium citrate, 13 mmol/L). All blood was maintained at 37° C. from the time of blood sampling.
(§4) Platelet-rich plasma (PRP) was obtained by centrifugation of citrated blood for 15 minutes at 200×g, and was adjusted with platelet-poor plasma to a standard platelet number of 320±20×10^9/L prior to use. PRP was used for platelet function measurements within two hours.
(§5) The following agonists were used for platelet function measurements. Adenosine diphosphate (ADP), final concentration 10 μmol/L; collagen, final concentration 5 mg/L; arachidonic acid, final concentration 500 U/L (all from Helena Biosciences, Sunderland, UK); thrombin receptor-activating peptide (TRAP), final concentration 25 nmol/L (Sigma-Aldrich, Poole, UK). Agonists were prepared from stock solutions immediately before use, diluting into warmed physiological saline (0.9% NaCl).
(§6) Individual platelet inhibitors were prepared at a concentration of between 500 g/L and 100 g/L in either physiological saline, ultra-pure methanol or ultra-pure DMSO (Sigma-Aldrich, Poole, UK) and stored frozen until required. Stock solutions were then diluted with physiological saline immediately prior to use.
(§7) 450 μL PRP was incubated with 50 μL diluted inhibitor solution at 37° C. for 10 minutes, in low-retention epindorrfs. Inhibitor solutions were diluted such that the final concentration of methanol or DMSO in the PRP sample never exceeded 2%. Suitable control samples, containing 50 μL physiological saline matched for methanol or DMSO content as appropriate, were incubated simultaneously. For each inhibitor compound, 5 incubation concentrations were used; final concentrations of 0.05 mg/mL, 0.10 mg/mL, 1.00 mg/mL, 5.00 mg/mL and 10 mg/mL were used as standard.
(§8) After incubation with platelet inhibitors, PRP samples were transferred to glass cuvettes and the extent of aggregation induced by either ADP, collagen, TRAP or arachidonic acid was monitored over 10 minutes on a platelet aggregometer (PACKS 4, Helena Biosciences, Sunderland, UK). A control sample was run with each sample set. From the aggregation curves generated, the area under the curve was calculated for each PRP sample, and the inhibition of aggregation achieved at each inhibitor concentration was calculated by comparing the area under the curve for these PRP samples with that of the control sample. The inhibition of aggregation was expressed as % inhibition, compared to control, and from the 6 data points obtained per inhibitor compound, a dose-response curve was constructed. This curve was then used to predict the IC50 value for that inhibitor compound, as shown in 1.2, Results, and FIG. 1.
(§9) For each blood sample obtained, 6-point dose-response curves for 2 different inhibitory compounds could be generated. […]
In the case of `O=C(O)/C=C/c1ccc(O)c(O)c1` [Compound 18, Caffeic acid], the IC50 is reported as 11.4 mg/mL (≈ 63.1 mM).
Compound `COc1cc(/C=C/C(=O)O)ccc1O` [Compound 21, Ferulic acid] has an IC50 of 13.9 mg/mL (≈ 71.6 mM).
Compound `C[C@@H]1O[C@@H](OC[C@H]2O[C@@H](Oc3c(-c4ccc(O)c(O)c4)oc4cc(O)cc(O)c4c3=O)[C@H](O)[C@@H](O)[C@@H]2O)[C@H](O)[C@H](O)[C@H]1O` [Compound 27, Rutin] has an IC50 of 32.2 mg/mL (≈ 52.7 mM).
`O=c1ccn([C@@H]2O[C@H](CO)[C@@H](O)[C@H]2O)c(=O)[nH]1` [Compound 3, Uridine] was tested, and the IC50 was 16 mg/mL (≈ 65.5 mM).
In the case of `Nc1ccn([C@@H]2O[C@H](CO)[C@@H](O)[C@H]2O)c(=O)n1` [Compound 1, Cytidine], the IC50 is reported as 10.7 mg/mL (≈ 43.8 mM).
With `O=C(O)/C=C/c1ccc(O)cc1` [Compound 19, p-coumaric acid] the IC50 was 14.6 mg/mL (≈ 89.1 mM).

Same assay, conditions: amount in mg inhibiting aggregation by 50% in 1 mL platelet-rich plasma; collagen 5 mg/L; average of at least 3 IC50s
With `O=C(O)c1ccccc1` [Compound 20, Benzoic acid] the “IC50 Collagen” value was 17.74 mg.
`O=C(/C=C/c1ccc(O)c(O)c1)O[C@@H]1C[C@](O)(C(=O)O)C[C@@H](O)[C@H]1O` [Compound 14, Chlorogenic acid] was tested, and the “IC50 Collagen” value was 10.11 mg.
Adenosine 3′-monophospate [Compound 5] was tested, and the “IC50 Collagen” value was 0.28 mg.

Each compound was assayed on platelet aggregation induced by thrombin receptor-activating peptide (TRAP) in platelet-rich plasma (assay: Inhibition of TRAP-induced platelet aggregation in platelet-rich plasma (aggregometer)). Conditions: Homo sapiens; amount in mg inhibiting aggregation by 50% in 1 mL platelet-rich plasma; TRAP 25 nmol/L; average of at least 3 IC50s.
Type: cell-based, human
Experimental: as §1, §2, §3, §4, §5, §6, §7, §8, §9
`O=c1c(O)c(-c2ccc(O)c(O)c2)oc2cc(O)cc(O)c12` [Compound 30, Quercetin] gave an IC50 of 19.7 mg/mL (≈ 65 mM).
For `O=C(O)/C=C/c1ccc(O)c(O)c1` [Compound 18, Caffeic acid], the IC50 was 8.03 mg/mL (≈ 44.6 mM).
`O=c1c(O)c(-c2ccc(O)cc2)oc2cc(O)cc(O)c12` [Compound 31, Kaempferol] was tested, and the IC50 was 26.2 mg/mL (≈ 91.5 mM).
In the case of `COc1cc(/C=C/C(=O)O)ccc1O` [Compound 21, Ferulic acid], the IC50 is reported as 14.7 mg/mL (≈ 75.4 mM).
For `O=C1C[C@@H](c2ccc(O)cc2)Oc2cc(O)cc(O)c21` [Compound 32, Naringenin], the IC50 was 33.2 mg/mL (≈ 122 mM).
In the case of `C[C@@H]1O[C@@H](OC[C@H]2O[C@@H](Oc3c(-c4ccc(O)c(O)c4)oc4cc(O)cc(O)c4c3=O)[C@H](O)[C@@H](O)[C@@H]2O)[C@H](O)[C@H](O)[C@H]1O` [Compound 27, Rutin], the IC50 is reported as 8.96 mg/mL (≈ 14.7 mM).
In the case of `Nc1ccn([C@@H]2O[C@H](CO)[C@@H](O)[C@H]2O)c(=O)n1` [Compound 1, Cytidine], the IC50 is reported as 39 mg/mL (≈ 160 mM).
Work on `O=C(O)/C=C/c1ccc(O)cc1` [Compound 19, p-coumaric acid] yielded an IC50 of 12.8 mg/mL (≈ 78.1 mM).
For `Nc1nc2c(ncn2[C@@H]2O[C@H](CO)[C@@H](O)[C@H]2O)c(=O)[nH]1` [Compound 4, Guanosine], the IC50 was 26.1 mg/mL (≈ 92 mM).

Same assay, conditions: amount in mg inhibiting aggregation by 50% in 1 mL platelet-rich plasma; TRAP 25 nmol/L; average of at least 3 IC50s
With `O=C(O)c1ccccc1` [Compound 20, Benzoic acid] the “IC50 TRAP” value was 18.19 mg.
For `O=C(/C=C/c1ccc(O)c(O)c1)O[C@@H]1C[C@](O)(C(=O)O)C[C@@H](O)[C@H]1O` [Compound 14, Chlorogenic acid], the “IC50 TRAP” value was 1.1 mg.
With Adenosine 3′-monophospate [Compound 5] the “IC50 TRAP” value was 24.51 mg.

The compounds below were run on platelet aggregation induced by arachidonic acid in platelet-rich plasma (assay: Inhibition of arachidonic acid-induced platelet aggregation in platelet-rich plasma (aggregometer)). Conditions: Homo sapiens; amount in mg inhibiting aggregation by 50% in 1 mL platelet-rich plasma; arachidonic acid 500 U/L; average of at least 3 IC50s.
Type: cell-based, human
Experimental: as §1, §2, §3, §4, §5, §6, §7, §8, §9
`O=c1c(O)c(-c2ccc(O)c(O)c2)oc2cc(O)cc(O)c12` [Compound 30, Quercetin] gave an IC50 of 3.66 mg/mL (≈ 12.1 mM).
In the case of `O=C(O)/C=C/c1ccc(O)c(O)c1` [Compound 18, Caffeic acid], the IC50 is reported as 7.33 mg/mL (≈ 40.7 mM).
For `O=c1c(O)c(-c2ccc(O)cc2)oc2cc(O)cc(O)c12` [Compound 31, Kaempferol], the IC50 was 5.18 mg/mL (≈ 18.1 mM).
For `COc1cc(/C=C/C(=O)O)ccc1O` [Compound 21, Ferulic acid], the IC50 was 9.94 mg/mL (≈ 51.2 mM).
For `O=C1C[C@@H](c2ccc(O)cc2)Oc2cc(O)cc(O)c21` [Compound 32, Naringenin], the IC50 was 10.4 mg/mL (≈ 38.2 mM).
`Nc1ccn([C@@H]2O[C@H](CO)[C@@H](O)[C@H]2O)c(=O)n1` [Compound 1, Cytidine] was tested, and the IC50 was 39 mg/mL (≈ 160 mM).
For `O=C(O)/C=C/c1ccc(O)cc1` [Compound 19, p-coumaric acid], the IC50 was 10.2 mg/mL (≈ 62 mM).

Same assay, conditions: amount in mg inhibiting aggregation by 50% in 1 mL platelet-rich plasma; arachidonic acid 500 U/L; average of at least 3 IC50s
With `O=C(O)c1ccccc1` [Compound 20, Benzoic acid] the “IC50 AA” value was 15.45 mg.
With `O=C(/C=C/c1ccc(O)c(O)c1)O[C@@H]1C[C@](O)(C(=O)O)C[C@@H](O)[C@H]1O` [Compound 14, Chlorogenic acid] the “IC50 AA” value was 0.77 mg.
For Adenosine 3′-monophospate [Compound 5], the “IC50 AA” value was 2.41 mg.

What follows are compounds tested on platelet aggregation induced by ADP in platelet-rich plasma (assay: Inhibition of ADP-induced platelet aggregation in platelet-rich plasma (aggregometer)). Conditions: Homo sapiens; amount in mg inhibiting aggregation by 50% in 1 mL platelet-rich plasma; ADP 10 μmol/L; average of at least 3 IC50s.
Type: cell-based, human
Experimental: as §1, §2, §3, §4, §5, §6, §7, §8, §9
`O=C(O)/C=C/c1ccc(O)c(O)c1` [Compound 18, Caffeic acid] showed an IC50 of 19 mg/mL (≈ 105 mM).
For `COc1cc(/C=C/C(=O)O)ccc1O` [Compound 21, Ferulic acid], the IC50 was 18.7 mg/mL (≈ 96.1 mM).
`C[C@@H]1O[C@@H](OC[C@H]2O[C@@H](Oc3c(-c4ccc(O)c(O)c4)oc4cc(O)cc(O)c4c3=O)[C@H](O)[C@@H](O)[C@@H]2O)[C@H](O)[C@H](O)[C@H]1O` [Compound 27, Rutin] showed an IC50 of 35.2 mg/mL (≈ 57.7 mM).
For `O=c1ccn([C@@H]2O[C@H](CO)[C@@H](O)[C@H]2O)c(=O)[nH]1` [Compound 3, Uridine], the IC50 was 6.51 mg/mL (≈ 26.7 mM).
`Nc1ccn([C@@H]2O[C@H](CO)[C@@H](O)[C@H]2O)c(=O)n1` [Compound 1, Cytidine] was tested, and the IC50 was 2.42 mg/mL (≈ 9.95 mM).
With `O=C(O)/C=C/c1ccc(O)cc1` [Compound 19, p-coumaric acid] the IC50 was 13.2 mg/mL (≈ 80.5 mM).

Same assay, conditions: amount in mg inhibiting aggregation by 50% in 1 mL platelet-rich plasma; ADP 10 μmol/L; average of at least 3 IC50s
For `O=C(O)c1ccccc1` [Compound 20, Benzoic acid], the “IC50 ADP” value was 25.11 mg.
For `O=C(/C=C/c1ccc(O)c(O)c1)O[C@@H]1C[C@](O)(C(=O)O)C[C@@H](O)[C@H]1O` [Compound 14, Chlorogenic acid], the “IC50 ADP” value was 10.08 mg.
For Adenosine 3′-monophospate [Compound 5], the “IC50 ADP” value was 0.12 mg.
